Laboratory results from PubChem BioAssay (NCI).
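The compound was tested at five concentrations on cells cultured in 96-well plates, with a 48-hour exposure period. TGI marks complete inhibition of growth.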

Legend:
Test in all cases: growth of human tumour cells (NCI), 48 h
[1] = system: SK-MEL-2 melanoma
[2] = system: RPMI-8226 leukemia
[3] = system: SK-OV-3 ovarian
[4] = system: LOX IMVI melanoma
[5] = system: SK-MEL-5 melanoma
[6] = system: OVCAR-8 ovarian
[7] = system: K-562 leukemia
[8] = system: EKVX NSCLC
[9] = system: OVCAR-3 ovarian
[10] = system: NCI-H23 lung
[11] = system: KM20L2 colon
[12] = system: HOP-62 NSCLC
[13] = system: MALME-3M melanoma
[14] = system: A549 NSCLC
[15] = system: RXF 393 renal
[16] = system: SNB-75 CNS
[17] = system: UO-31 renal
[18] = system: HCT-116 colon
[19] = system: DMS 273 small cell lung
[20] = system: SN12C renal
[21] = system: UACC-257 melanoma
[22] = system: SF-268 CNS
[23] = system: NCI-H460 lung
[24] = system: HOP-18 NSCLC
[25] = system: M19-MEL melanoma
[26] = system: TK-10 renal
[27] = system: NCI-H522 lung
[28] = system: SK-MEL-28 melanoma
[29] = system: KM12 colon
[30] = system: DMS 114 small cell lung
[31] = system: HOP-92 NSCLC
[32] = system: 786-0 renal
[33] = system: SF-539 CNS
[34] = system: UACC-62 melanoma
[35] = system: COLO 205 colon
[36] = system: SNB-19 CNS
[37] = system: HT29 colon
[38] = system: CCRF-CEM leukemia
[39] = system: SF-295 CNS
[40] = system: MOLT-4 leukemia
[41] = system: SR leukemia
[42] = system: IGROV1 ovarian
[43] = system: ACHN renal
[44] = system: U251 CNS
[45] = system: HCT-15 colon
[46] = system: SNB-78 CNS
[47] = system: OVCAR-5 ovarian
[48] = system: HCC-2998 colon
[49] = system: A498 renal
[50] = system: SW-620 colon
[51] = system: M14 melanoma
[52] = system: OVCAR-4 ovarian
[53] = system: NCI-H226 lung
[54] = system: CAKI-1 renal
[55] = system: DLD-1 colon
[56] = system: XF 498 CNS
[57] = system: HL-60(TB) leukemia

In the case of `O=c1c2c(nc3n1CCC3)sc1c(O)c(Br)ccc12`, the TGI [1] is reported as 39.3 µM, the TGI [2] is reported as 53.6 µM and the TGI [3] is reported as over 100 µM. It also gave a TGI [4] of 27.1 µM, a TGI [5] of 30.4 µM and a TGI [6] of 24.2 µM. For the same compound, the TGI [7] was 59.2 µM, the TGI [8] was 68.6 µM and the TGI [9] was 36.7 µM. The TGI [10] was 92.7 µM, the TGI [11] was 35.9 µM and the TGI [12] was 45.3 µM. For the same compound, the TGI [13] was 34.4 µM, the TGI [14] was 29.9 µM and the TGI [15] was over 100 µM. For the same compound, the TGI [16] was over 100 µM, the TGI [17] was 45.8 µM and the TGI [18] was 35.2 µM. The TGI [19] was 31 µM, the TGI [20] was 43.1 µM and the TGI [21] was 30.7 µM. For the same compound, the TGI [22] was over 100 µM, the TGI [23] was 34.4 µM and the TGI [24] was over 100 µM. For the same compound, the TGI [25] was 32.8 µM, the TGI [26] was 60.5 µM and the TGI [27] was 37.9 µM. For the same compound, the TGI [28] was 34.8 µM, the TGI [29] was 29.7 µM and the TGI [30] was 32.4 µM. It also gave a TGI [31] of over 100 µM, a TGI [32] of 37.4 µM and a TGI [33] of 33 µM. It also gave a TGI [34] of 35.8 µM, a TGI [35] of 24.4 µM and a TGI [36] of over 100 µM. For the same compound, the TGI [37] was 33.1 µM, the TGI [38] was 45.1 µM and the TGI [39] was 35 µM. It also gave a TGI [40] of 55.1 µM, a TGI [41] of 54 µM and a TGI [42] of 82.5 µM. For the same compound, the TGI [43] was 35.8 µM, the TGI [44] was 57.3 µM and the TGI [45] was 45.7 µM. It also gave a TGI [46] of over 100 µM, a TGI [47] of 51.7 µM and a TGI [48] of 38 µM. For the same compound, the TGI [49] was 24.5 µM, the TGI [50] was 29.9 µM and the TGI [51] was over 100 µM. It also gave a TGI [52] of 54.9 µM, a TGI [53] of 73.2 µM and a TGI [54] of over 100 µM. It also gave a TGI [55] of over 100 µM, a TGI [56] of 36.8 µM and a TGI [57] of 33.8 µM.
